In patent US7605168B2 (Plexxikon, Inc., priority 2004, dated 2009):

What was measured:
[1] = system: TNF-α release from whole blood cultures stimulated with LPS; assay: IC50 by TNF alpha production upon stimulation of whole blood cultures with LPS; format: cell-based; conditions: human whole blood (buffy coat) culture, 100 ng/ml LPS, 4 hours; read-out: h TNFα IC50
How it was run: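 Human buffy coat, diluted with 7 volumes of RPMI/2.5% heat-inactivated FBS, was preincubated with compound (8-point 1:3 series) for 1 h at 37 °C. It was then stimulated with 100 ng/ml LPS (final) for 4 h. Supernatant TNF-α was measured by sandwich ELISA at 450 nm, and IC50 was set between DMSO (0%) and PDE4-inhibitor (100%) controls.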

[2] = molecular target: T1, PDE4B: catalytic domain of human PDE4B from S152-S528 (Homo sapiens, UniProt Q07343); assay: PDE4 IC50 determination by Scintillation Proximity Assay (SPA), PDE4B catalytic domain; format: biochemical; conditions: [3H]cAMP SPA, 30 min at 30° C.
T1 construct: The catalytic domain of human PDE4B from S152-S528; His6 (N, cleaved yes); thrombin cleavage site (N, cleaved yes); made in house; host or cells: E. coli BL21 (DE3) RIL
How it was run: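 Human PDE4B catalytic domain (80 ng/ml) hydrolysed [3H]cAMP in 50 mM Tris pH 7.5, 8.3 mM MgCl, 1.7 mM EGTA, 0.01% BSA for 30 min at 30 °C. Reaction was stopped with yttrium silicate SPA beads in 18 mM ZnSO4, and bound [3H]AMP was counted by scintillation. IC50 came from non-linear regression.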

[3] = molecular target: T2, PDE4D5: full-length human PDE4D5 isozyme (Homo sapiens, UniProt Q08499); assay: PDE4 IC50 determination by Scintillation Proximity Assay (SPA), full-length PDE4D5; format: biochemical; conditions: cell lysate, [3H]cAMP SPA
T2 construct: made in house; host or cells: baculovirus infected insect cells (pFastBacHT)
How it was run: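 Unpurified enzyme from cell lysates (PDE4B2 2.5 μl, PDE4D5 0.083 μl of 50% glycerol stock/ml) hydrolysing [3H]cAMP in 50 mM Tris pH 7.5, 8.3 mM MgCl, 1.7 mM EGTA, 0.01% BSA, 30 min at 30 °C. Stopped with yttrium silicate SPA beads in 18 mM ZnSO4; bead-bound [3H]AMP counted. IC50 by non-linear regression.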

T1 sequence (Q07343 324-700): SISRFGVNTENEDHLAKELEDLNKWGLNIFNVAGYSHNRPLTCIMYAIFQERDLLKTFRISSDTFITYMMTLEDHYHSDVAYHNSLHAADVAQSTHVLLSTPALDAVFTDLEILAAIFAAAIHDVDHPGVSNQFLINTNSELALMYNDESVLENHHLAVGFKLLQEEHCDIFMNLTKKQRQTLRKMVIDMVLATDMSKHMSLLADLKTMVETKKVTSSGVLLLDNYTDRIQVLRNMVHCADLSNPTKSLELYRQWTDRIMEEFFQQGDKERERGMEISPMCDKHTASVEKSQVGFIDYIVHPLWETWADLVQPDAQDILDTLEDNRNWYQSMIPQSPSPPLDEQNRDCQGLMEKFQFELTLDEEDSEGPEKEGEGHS
T2 sequence (Q08499 with tags, fused parts or gaps isoform Q08499-6): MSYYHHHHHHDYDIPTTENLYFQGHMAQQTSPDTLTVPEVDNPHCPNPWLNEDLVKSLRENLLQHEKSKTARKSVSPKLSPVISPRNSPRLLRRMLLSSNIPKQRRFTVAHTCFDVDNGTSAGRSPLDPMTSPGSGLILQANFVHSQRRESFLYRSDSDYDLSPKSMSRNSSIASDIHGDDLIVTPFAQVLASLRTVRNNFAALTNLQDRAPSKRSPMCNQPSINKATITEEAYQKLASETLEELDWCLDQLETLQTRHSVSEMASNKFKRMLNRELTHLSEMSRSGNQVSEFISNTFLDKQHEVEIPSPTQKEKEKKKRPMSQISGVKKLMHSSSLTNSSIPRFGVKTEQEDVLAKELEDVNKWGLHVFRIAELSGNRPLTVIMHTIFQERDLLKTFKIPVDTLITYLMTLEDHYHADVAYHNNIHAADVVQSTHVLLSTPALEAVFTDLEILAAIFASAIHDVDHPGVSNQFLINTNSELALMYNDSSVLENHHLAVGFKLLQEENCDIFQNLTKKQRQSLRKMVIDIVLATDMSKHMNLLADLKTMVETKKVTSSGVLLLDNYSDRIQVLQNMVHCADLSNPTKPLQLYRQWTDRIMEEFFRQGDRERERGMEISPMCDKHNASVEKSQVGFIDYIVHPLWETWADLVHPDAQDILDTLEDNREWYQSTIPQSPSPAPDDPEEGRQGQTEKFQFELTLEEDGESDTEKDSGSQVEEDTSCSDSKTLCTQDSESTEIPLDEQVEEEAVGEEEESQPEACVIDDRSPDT

SMILES | IC50 [1] [µM] | IC50 [2] [µM] | IC50 [3] [µM]
CCOc1ccc2ccccc2c1C(=O)n1cc(-c2ccc(OC)c(OC)c2)c2cccnc21 [Compound 52, [3-(3,4-Dimethoxy-phenyl)-pyrrolo[2,3-b]pyridin-1-yl]-(2-ethoxy-naphthalen-1-yl)-methanone] | ≤ 10 | < 10 | < 10
CCOc1ccccc1C(=O)n1cc(-c2ccc(OC)c(OC)c2)c2cccnc21 [Compound 61, [3-(3,4-Dimethoxy-phenyl)-pyrrolo[2,3-b]pyridin-1-yl]-(2-ethoxy-phenyl)-methanone-amide] | ≤ 10 | < 10 | < 10
